Results taken from patent US4886517A, “Dyeing composition for human hair containing an azo dye” (L'Oreal, priority 1985, dated 1989).

Tests used:
[1] = test system: Salmonella strains; assay: Ames test (mutagenicity); assay type: biochemical
[2] = Solubility in 96° ethanol at 25° C.; assay type: physicochemical
Source text: The compound of formula (II) also has the advantage of having a good solubility in the usual dye carriers.

[3] = Dye fastness on hair, fastness to washing/shampooing; parameters: species or system human; details: compared to nitro benzene dyes

Nc1ccc(N=Nc2ccc(N(CCO)CCO)cc2)cc1 [(I)]
mutagenicity (Ames test) ([1]; five strains of the Salmonella type, in the presence of a S-9 Mix microsomal activator): mutagenic to five strains of the Salmonella type
solubility [2]: 1.3%
stability to washing [3]: improved stability to washing

Cc1cc(N(CCO)CCO)ccc1N=Nc1ccc(N)cc1 [(II)]
non-mutagenicity ([1]; strains and activation not stated for this compound): non-mutagenicity has been demonstrated
solubility [2]: 5.3%
